We go through one molecule from US20050075398A1, “Neuroprotectin D1 protects against cellular apoptosis, stroke damage, alzheimer's disease and retinal diseases” (priority 2003, published 2005).

The subject of experiment [1] is polymorphonuclear leukocyte infiltration. The experiment in a line: Zymosan-induced peritonitis, leukocyte infiltration. The class given is in vivo, mouse. Conditions: 100 ng i.v. bolus 1.5 min before Zymosan A; lavage at 2 h. The procedure:
The inhibition of leukocyte infiltration in zymosan-induced peritonitis by 4,17S-diHDHA and 10,17S-docosatriene (NPD1) was tested. […] Peritonitis was induced in 6- to 8-week-old male FVB mice (Charles River Laboratories) by peritoneal injection of 1 mg Zymosan A. The compounds 4,17S- and 10,17S-diHDHA were injected by intravenous bolus injection, 1.5 minutes before Zymosan A treatment. Two hours after induction of peritonitis, rapid peritoneal lavages were collected, and cell type enumeration was performed.

The test system of a further experiment is TNFα gene expression. The experiment in a line: HGU133 GeneChip DNA array in HN cells: TNFα. It is filed as cell-based, human. The note with it: Aβ42 25 μM, DHA 50 nM or NPD1 50 nM, 18 h, nsc = no significant change.
Another experiment deals with Bax. The experiment in a line: Western blot of Bax in ARPE-19 cells under TNFα/H2O2. The class given is cell-based, human. Conditions: 50 nM; 800 μM H2O2 along with TNFα, 6 h. The protocol:
Analysis of pro- and anti-apoptotic proteins in ARPE-19 cells: Bcl-2 family proteins were analyzed by Western-blot analysis. In brief, 20-μg equivalents of each cell extract were subjected to electrophoresis on a 8-16% gel (Promega, Madison, Wis.) at 125 volts for 2 h. The proteins were transferred to nitrocellulose membrane at 30 volts for 1 h at 4° C. The membranes were subjected to treatment with primary antibodies of Bcl-2, Bcl-xL, Bax, and Bad for 1 h at room temperature, and probed 30 min with secondary antibody, goat anti-rabbit Ig:HRPO and HRP-conjugated anti-biotin antibody. (BD Sciences—Pharminogen, San Diego, Calif.) Then proteins were evaluated using an ECL kit. (Amersham Biosciences Corp., Piscataway, N.J.)
Using the same TNFα/H2O2 concentrations, Bcl-2 proteins were assayed. Cells were grown for 72 h after plating, placed in serum-free medium for 1 h, then incubated with TNFα/H2O2 for 6 h. Protein expression and Western-blot analysis were performed as described in Example 13. Data in FIGS. 14A, 14B, 14C and 14D represent four independent experiments with triplicate samples in each case. Anti-apoptotic protein Bcl-xL was enhanced in ARPE-19 cells by TNFα/H2O2 (800 μM) (FIG. 14B, first bar), whereas Bcl-2 was not changed (FIG. 14A, first bar).
(In general: Immunoblotting shows a protein as a band on a membrane.)

On to `CC/C=C\C[C@H](O)\C=C/C=C/C=C/[C@H](O)C/C=C\C/C=C\CCC(=O)O` [NPD1, 10,17S-docosatriene], for which the “inhibition of leukocyte infiltration” value in experiment [1] is “potent inhibition”. Besides, the “TNFα gene expression, fold change over untreated controls” value in the experiment with TNFα gene expression was “nsc”. For the same molecule, in the experiment on Bax, the “decrease of the up regulation of Bax” value turned out to be 65%.
